The values that follow are results of earlier work, collected in patent US20070042953A1, “Antiepileptogenic complex of albumin with docosahexaenoate” (priority 2005, published 2007).

Data set [1] relates to patients with chronic epilepsy. The following applies: nutritional supplementation, first 6 weeks.
The subject of data set [2] is rat brain cells or hippocampal slices.

Consider `CCC=CCC=CCC=CCC=CCC=CC/C=C\CCC(=O)[O-].[Na+]` [DHA, cis-4,7,10,13,16,19-Docosahexaenoic acid, sodium salt], for which the seizure frequency result in data set [1] is “reduce seizure frequency in the first 6 weeks, but the effect was not sustained”. For the same compound, the “epileptic activity in vitro” value in data set [2] is on record as “attenuate epileptic activity”.
